Measurements published in US20230061352A1, “DRUG DELIVERY DEVICE” (priority 2020, published 2023).
“Also recorded” adds a separate entry of the source.

Experiments:
[1] = Qualitative sample analysis (Q1 test) of released drug by LCMS; format: physicochemical; details: drug released from the device; chromatograms, FIGS. 7 and 8
Procedure: Qualitative sample analysis (or Q1 test) was performed on select samples to assure single spikes were detected at frequencies consistent with calibration curves and that no secondary spikes were detected (indicating LCMS detection of single molecules without breakdown products).

[2] = LCMS drug levels in porcine serum from the internal jugular vein; format: in vivo, pig; details: released from implanted device; 0, 1, 2, 4, 24, 48, 72, 120, 240, 336 hrs; FIGS. 14 and 15
Text: (§1) Devices produced in accordance with the methods of EXAMPLE 1 were implanted into tonsillectomized pigs.
(§2) The specific LCMS method used for detection of Bupivacaine and Lidocaine has been validated in work by Hoizey et al (2005) (Hoizey G, et al. Sensitive bioassay of bupivacaine in human plasma by liquid-chromatography-ion trap mass spectrometry. Journal of pharmaceutical and biomedical analysis. 2005; 39:587-92).
(§3) The specific LCMS method used for detection of Bupivacaine and Lidocaine has been validated in work by Hoizey et al (2005).

[3] = LCMS drug levels in porcine lymph tissue from the anterior jugular chain; format: in vivo, pig; details: released from implanted device; necropsy at 0, 48, 120, 240 and 336 hrs; FIGS. 12 and 13
Text: as §1, §2, §3

Compound	integrity of the released drug molecule (no breakdown products) [1]	drug level detected in serum (systemic uptake) [2] [microgram per ml]	drug level detected in locoregional (lymph) tissue [3] [microgram per ml]
CCCCN1CCCCC1C(=O)Nc1c(C)cccc1C (centres unmarked) [bupivacaine]	active form is preserved; also recorded: complete, intact bupivacaine molecule	< 4	< 4
CCN(CC)CC(=O)Nc1c(C)cccc1C [lignocaine]	active form is preserved; also recorded: complete, intact lignocaine molecule	–	< 5.6
